# Article PMC12292791, “Insights into Membrane Damage by α-Helical and β-Sheet Peptides” (Biomolecules, 2025)
# Peptide text beside a SMILES is read from it.
# Legend:
# [1] = ANTS/DPX dye leakage assay with large unilamellar vesicles; assay type: biochemical; details: 500 µM lipid
# Protocol: Large unilamellar vesicles were prepared using a modified procedure from Wimley. Individual solutions of 1-palmitoyl-2-oleoyl-glycero-3-phosphocholine (POPC) and 1-palmitoyl-2-oleoyl-sn-glycero-3-phospho-(1’-rac-glycerol) (sodium salt) (POPG) lipids (Avanti Research, Alabaster, AL, USA) in chloroform were mixed in a 7:3 mol/mol POPC–POPG ratio, and the chloroform was gently evaporated under a stream of nitrogen gas. The lipid film was then dried in vacuo overnight. After complete evaporation of the chloroform, the lipid film was resuspended in the vesicle preparation buffer to yield a 25 mM lipid solution. The vesicle preparation buffer consisted of 45 mM KCl, 10 mM Tris HCl, 8 mM 8-aminonaphthalene-1,3,6-trisulfonic acid disodium salt (ANTS) (Fisher Scientific Inc., Waltham, MA, USA), and 32 mM p-xylene-bis-pyridinium bromide (DPX) (Fisher Scientific, Inc.). The lipid film was allowed to dissolve in the vesicle preparation buffer for approximately 15 min. If any lipid film remained on the side of the tube, the solution was gently pipetted up and down to mix the film with the liposome suspension. Once the film was thoroughly dissolved, the lipid suspension was subjected to 10 freeze/thaw cycles using a dry ice/ethanol bath and a 60 °C water bath to facilitate encapsulation of the fluorophore and quencher pair (ANTS and DPX). […]
# Lyophilized peptide was dissolved in the liposome elution buffer at a volume corresponding to half the total volume needed for the experiment. The liposome solution was diluted to 1 mM lipid from the concentration calculated using the phosphorus concentration method described above. […]
# Fluorescence measurements were conducted on a Tecan Spark® 20M plate reader (Tecan, Männedorf, Zurich, Switzerland). […] The wells were excited at 355 nm with a bandwidth of 5 nm, and emission was monitored at a wavelength of 520 nm with a bandwidth of 10 nm. The gain and z-position were calculated using a well containing liposomes lysed with reduced Triton^TM X-100 (Sigma-Aldrich) to produce maximum fluorescence. […]
# To ensure accurate comparison across batches of liposomes, the percentage leakage was calculated using the formula: PercentLeakage=F−F0/Flysed−F0×100 where F is the relative fluorescence (RF) at time t, F0 is the RF at t=0 , and Flysed is the RF after the addition of detergent. Since leakage occurred immediately upon mixing the liposome and peptide solutions, the initial fluorescence ( F0 ) was determined by adding the relative fluorescence of liposomes alone to the relative fluorescence of the peptide in the elution buffer at each relevant concentration. […] Leakage experiments were performed at least in triplicate, and error bars were calculated as the standard deviation about the mean. […]
# [2] = Solubility in liquid elution buffer observed during CD measurements; assay type: physicochemical; details: liposome elution buffer (75 mM KCl, 20 mM Tris HCl), lyophilized peptide dissolved, 25 °C CD samples
# Protocol: Circular dichroism (CD) spectra were recorded using a Jasco-815 circular dichroism spectrometer with a 0.1 mm path-length quartz cuvette. Scans were performed at 25 °C in duplicate, covering the wavelength range of 190–260 nm. The scanning parameters included a 1.0 nm data pitch, 1.0 nm bandwidth, and a scanning speed of 100 nm/min.
# Additionally, the spectra recorded in the presence of the LUVs differed from those recorded in buffer alone. […] At peptide concentrations higher than 500 µM, M03 began to lose solubility, while M04 began to precipitate from solution at concentrations higher than 200 µM. The reduced solubility of M04 was likely due to the orientation of all its hydrophobic residues on one face of the α -helix, making it more prone to aggregation in aqueous solutions. […] It is also important to note that the CD spectra of M03 and M04 were noticeably different from each other. This underscores the effect that varying the sequence pattern, even slightly, can have on the resulting peptide properties.
# [3] = immediately upon dissolution in aqueous solvent; cited from earlier work
# Excerpt: In the following section, we discuss the secondary structure and membrane damage properties of M03 and M04. […] This happened immediately upon dissolution in aqueous solvent; likely before it was able to interact with the membranes. Therefore, it was difficult to determine the effect of M01 peptides on membranes experimentally, as the leakage observed was likely due to mechanical disruption of the liposomes as the peptide monomers assembled ...
compound,measurement,setting,value
"CC(=O)N[C@@H](Cc1ccccc1)C(=O)N[C@@H](Cc1ccccc1)C(=O)N[C@@H](CCCCN)C(=O)N[C@@H](CCCCN)C(=O)N[C@@H](Cc1ccccc1)C(=O)N[C@@H](Cc1ccccc1)C(=O)N[C@@H](CCC(=O)O)C(=O)N[C@@H](CCC(=O)O)C(=O)N[C@@H](Cc1ccccc1)C(=O)N[C@@H](Cc1ccccc1)C(=O)N[C@@H](CCCCN)C(=O)N[C@@H](CCCCN)C(=O)N[C@@H](Cc1ccccc1)C(=O)N[C@@H](Cc1ccccc1)C(=O)N[C@@H](CCC(=O)O)C(=O)N[C@@H](CCC(=O)O)C(N)=O [Peptide M03, Ac-(FFKKFFEE)2-NH2] (Ac-FFKKFFEEFFKKFFEE-NH2)",percentage of leakage,"[1]; all P:L ratios tested (1:50, 2:50, 1:10, 1:5, 2:5), ANTS/DPX in 7:3 POPC–POPG LUVs, 75 mM KCl/20 mM Tris HCl, room temperature, fluorescence ex 355/em 520 nm, at least triplicate",greater than 80%
same,peptide concentration above which the peptide begins to lose solubility / precipitate,[2],higher than 500 µM
"Ac-FKFEFKFE-NH2 [Peptide M01, 8-residue amphipathic β-sheet forming peptide]",self-assembly / aggregation,[3],self-assembled into supramolecular β -sheet rich fibers
"CC(=O)N[C@@H](Cc1ccccc1)C(=O)N[C@@H](Cc1ccccc1)C(=O)N[C@@H](CCCCN)C(=O)N[C@@H](CCCCN)C(=O)N[C@@H](Cc1ccccc1)C(=O)N[C@@H](Cc1ccccc1)C(=O)N[C@@H](CCC(=O)O)C(=O)N[C@@H](CCC(=O)O)C(N)=O [Peptide M02, Ac-FFKKFFEE-NH2] (Ac-FFKKFFEE-NH2)",leakage,"[1]; peptide 100 µM, 500 µM and 1 mM (P:L 1:5, 1:1, 2:1), 7:3 POPC–POPG LUVs, ANTS/DPX",minimal leakage
"CC(=O)N[C@@H](Cc1ccccc1)C(=O)N[C@@H](Cc1ccccc1)C(=O)N[C@@H](CCCCN)C(=O)N[C@@H](CCCCN)C(=O)N[C@@H](Cc1ccccc1)C(=O)N[C@@H](Cc1ccccc1)C(=O)N[C@@H](CCC(=O)O)C(=O)N[C@@H](CCC(=O)O)C(=O)N[C@@H](Cc1ccccc1)C(=O)N[C@@H](CCCCN)C(=O)N[C@@H](CCCCN)C(=O)N[C@@H](Cc1ccccc1)C(=O)N[C@@H](Cc1ccccc1)C(=O)N[C@@H](CCC(=O)O)C(=O)N[C@@H](CCC(=O)O)C(=O)N[C@@H](Cc1ccccc1)C(N)=O [Peptide M04, Ac-FFKKFFEEFKKFFEEF-NH2] (Ac-FFKKFFEEFKKFFEEF-NH2)",percentage of leakage,"[1]; P:L 1:50 (lowest ratio), ANTS/DPX in 7:3 POPC–POPG LUVs, 75 mM KCl/20 mM Tris HCl, fluorescence, at least triplicate",no leakage
same,percentage of leakage (damage),"[1]; P:L 2:50, ANTS/DPX in 7:3 POPC–POPG LUVs, 75 mM KCl/20 mM Tris HCl, fluorescence, at least triplicate",21%
same,peptide concentration above which the peptide begins to lose solubility / precipitate,[2],higher than 200 µM
